Consider 17 molecules from BindingDB's records for doi:10.7270/Q2V986KM (Burnham Center For Chemical Genomics, 2011).

The target in the assay is T1, Carboxy-terminal domain RNA polymerase II polypeptide A small phosphatase 1 (Homo sapiens, UniProt Q9GZU7).
T1 sequence (Q9GZU7 whole entry): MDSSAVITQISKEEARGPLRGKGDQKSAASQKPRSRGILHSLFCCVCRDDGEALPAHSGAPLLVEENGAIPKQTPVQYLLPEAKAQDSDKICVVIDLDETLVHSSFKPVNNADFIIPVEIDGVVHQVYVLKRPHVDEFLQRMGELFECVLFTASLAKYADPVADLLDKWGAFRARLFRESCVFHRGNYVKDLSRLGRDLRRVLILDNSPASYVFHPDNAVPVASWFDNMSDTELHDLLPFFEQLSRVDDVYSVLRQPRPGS
Put plainly: CTDSP1 inhibitors, concentration-response, biochemical, absorbance-based, ultra-high-throughput screen actives (AID 540297).
As for `CCOc1cc(CN=Nc2nc(O)c(CC(=O)O)s2)ccc1OCc1ccc(Cl)cc1` [2-[2-[2-[[4-[(4-chlorophenyl)methoxy]-3-ethoxy-phenyl]methylidene]hydrazinyl]-4-oxidanylidene-1,3-thiazol-5-yl]ethanoic acid], the IC50 (commonly the concentration needed to halve the response being measured) came out at 7.12 µM.

Molecule `CC(=NNC(=O)c1cccc(N=NC(C)c2ccco2)c1)c1ccco1` (configuration not stated) [N-[1-(2-furanyl)ethylideneamino]-3-[2-[1-(2-furanyl)ethylidene]hydrazinyl]benzamide] gave an IC50 of 3.17 µM.

For the molecule `CC=CC=CC(=O)C1C(=O)[C@]2(C)C(=O)C(C)(O)[C@H]1[C@H]([C@]1(C)OC(=O)C(C)C1=O)[C@H]2C(=O)C=CC=CC` (stereo partly drawn) [(1S,4R,6E,7S,8R)-8-[(2E,4E)-hexa-2,4-dienoyl]-2-hydroxy-7-[(2S)-5-hydroxy-2,4-dimethyl-3-oxofuran-2-yl]-6-[(2E,4E)-1-hydroxyhexa-2,4-dienylidene]-2,4-dimethylbicyclo[2.2.2]octane-3,5-dione], it took 5.92 µM to reach half-maximal inhibition (IC50).

Molecule `O=C(O)c1cccc(-n2c(O)c3c(c2O)CC(Cl)=CC3)c1` [3-[5-chloranyl-1,3-bis(oxidanylidene)-3a,4,7,7a-tetrahydroisoindol-2-yl]benzoic acid] gave a half-maximal inhibitory concentration (IC50) of 10.3 µM.

With `CCOc1ccc(CN=Nc2ccc(S(=O)(=O)Nc3ccccc3C(=O)O)cc2[N+](=O)[O-])cc1OC` [SMR001308940], it took 3.51 µM to reach half-maximal inhibition (IC50).

`O=C(N/N=C/C1C=C(Cl)C=C([N+](=O)[O-])C1=O)c1cc(-c2ccccn2)nc2ccccc12` (configuration not stated) [MLS000773704] registered a 50% inhibitory concentration (IC50) of 1.85 µM.

The molecule `O=C(O)Cc1sc(N=NCc2ccccc2)nc1-c1ccccc1` registered an IC50 of 5.14 µM.

In the case of `Cc1ccc(OCC(=O)NN=C/C=C/c2ccco2)cc1` [MLS000563872], 6 µM corresponded to half-maximal inhibition (IC50).

For the molecule `CCCCCn1cc(O)c(-c2nc(-c3ccc(Cl)cc3)cs2)c1N` [5-azanyl-4-[4-(4-chlorophenyl)-1,3-thiazol-2-yl]-1-pentyl-2H-pyrrol-3-one], the 50% inhibitory concentration (IC50) was 5.38 µM.

`C=CCOc1ccc(CN=Nc2ccc(S(=O)(=O)Nc3ccccc3C(=O)O)cc2[N+](=O)[O-])cc1OC` [2-[[4-[2-[(3-methoxy-4-prop-2-enoxy-phenyl)methylidene]hydrazinyl]-3-nitro-phenyl]sulfonylamino]benzoic acid] registered an IC50 of 2 µM.

As to `O=[N+]([O-])c1cccc(-c2csc(N=NCc3cccc(O)c3)n2)c1` [3-[[[4-(3-nitrophenyl)-1,3-thiazol-2-yl]hydrazinylidene]methyl]phenol], the IC50 came to 10.8 µM.

Molecule `O=C1Nc2ccc([N+](=O)[O-])cc2/C1=N/NC(=O)c1cc(-c2ccccc2Cl)nc2ccccc12` [2-(2-chlorophenyl)-N'-(2-keto-5-nitro-indol-3-yl)cinchoninohydrazide] gave an IC50 of 0.711 µM.

On to `O=C(NN=C/C(Cl)=C/c1ccccc1)c1ccc2c(c1)OCO2` [SMR001240783], for which the midpoint of inhibition, the IC50, lay at 8.6 µM.

As to `COc1ccc(/C=C/C(=O)Oc2cccc(C=NNC(=O)c3cccc(F)c3)c2)cc1` [[3-[[(3-fluorobenzoyl)hydrazinylidene]methyl]phenyl] (E)-3-(4-methoxyphenyl)prop-2-enoate], half-maximal inhibition (IC50) required 12.8 µM.

`CC(N=Nc1ccc(Cl)c(C(=O)O)c1)c1ccc[nH]1` (configuration not stated) [2-chloro-5-[2-[(1Z)-1-pyrrol-2-ylideneethyl]hydrazinyl]benzoic acid] registered an IC50 of 4.28 µM.

`Cc1cc(C)n2c(SCC(=O)C(C#N)c3nc4ccccc4[nH]3)nnc2n1` (configuration not stated) [2-(1,3-dihydrobenzimidazol-2-ylidene)-4-[(5,7-dimethyl-[1,2,4]triazolo[4,3-a]pyrimidin-3-yl)sulfanyl]-3-oxidanylidene-butanenitrile] had an IC50 of 5.01 µM.

In turn, `CC(=O)C(C[N+]1(C)CCCCC1)N=O` (configuration not stated) came in with a 50% inhibitory concentration (IC50) of 3.4 µM.
